How the values were obtained:
[1] = target: Protein-tyrosine kinase 6 (Homo sapiens) (UniProt Q13882); assay: Inhibition of BRK (unknown origin) at 1 uM
[2] = target: Macrophage colony-stimulating factor 1 receptor (Homo sapiens) (UniProt P07333); assay: Inhibition of FMS (unknown origin) at 1 uM
[3] = target: Cyclin-dependent kinase 2/cyclin A (Homo sapiens) (UniProt P24941+P20248+P78396); assay: Inhibition of CDK2/cyclin A (unknown origin) at 1 uM; type: protein-complex assay
[4] = target: Protein-tyrosine kinase 2-beta (Homo sapiens) (UniProt Q14289); assay: Inhibition of PYK2 (unknown origin) at 1 uM
[5] = target: Ephrin type-A receptor 7 (Homo sapiens) (UniProt Q15375); assay: Inhibition of EPHA7 (unknown origin) at 1 uM
Sequence of Ephrin type-A receptor 7 (Homo sapiens) (Q15375 28-998 limits assumed): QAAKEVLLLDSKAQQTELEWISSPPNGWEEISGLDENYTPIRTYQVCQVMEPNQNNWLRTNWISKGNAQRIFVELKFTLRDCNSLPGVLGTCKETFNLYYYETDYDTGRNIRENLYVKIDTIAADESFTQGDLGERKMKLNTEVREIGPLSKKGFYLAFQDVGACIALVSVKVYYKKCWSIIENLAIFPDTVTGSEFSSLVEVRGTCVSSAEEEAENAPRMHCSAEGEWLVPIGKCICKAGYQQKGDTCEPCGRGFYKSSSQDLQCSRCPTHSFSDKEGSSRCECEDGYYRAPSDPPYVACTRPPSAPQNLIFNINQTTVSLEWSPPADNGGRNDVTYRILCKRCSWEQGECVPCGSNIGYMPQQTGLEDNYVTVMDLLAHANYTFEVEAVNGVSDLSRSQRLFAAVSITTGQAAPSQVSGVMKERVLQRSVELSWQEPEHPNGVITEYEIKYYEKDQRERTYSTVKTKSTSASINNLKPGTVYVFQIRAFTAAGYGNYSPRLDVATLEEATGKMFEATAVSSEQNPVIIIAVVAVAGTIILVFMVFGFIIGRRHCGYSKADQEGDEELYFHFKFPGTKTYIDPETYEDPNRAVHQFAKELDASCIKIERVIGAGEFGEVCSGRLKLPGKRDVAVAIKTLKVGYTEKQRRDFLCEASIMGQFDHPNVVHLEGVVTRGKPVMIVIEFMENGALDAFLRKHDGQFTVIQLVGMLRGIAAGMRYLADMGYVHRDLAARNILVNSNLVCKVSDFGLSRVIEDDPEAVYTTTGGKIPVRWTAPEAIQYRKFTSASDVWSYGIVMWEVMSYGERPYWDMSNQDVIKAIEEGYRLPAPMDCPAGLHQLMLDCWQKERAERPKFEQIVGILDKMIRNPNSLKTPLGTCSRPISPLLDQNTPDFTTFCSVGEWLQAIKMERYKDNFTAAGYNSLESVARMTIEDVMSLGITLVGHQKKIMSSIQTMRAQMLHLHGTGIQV

[6] = target: Tyrosine-protein kinase JAK1 (Homo sapiens) (UniProt P23458); assay: Inhibition of JAK1 (unknown origin) at 1 uM
[7] = target: Serine/threonine-protein kinase Chk1 (Homo sapiens) (UniProt O14757); assay: Inhibition of CHK1 (unknown origin) at 1 uM
Sequence of Serine/threonine-protein kinase Chk1 (Homo sapiens) (O14757 whole entry): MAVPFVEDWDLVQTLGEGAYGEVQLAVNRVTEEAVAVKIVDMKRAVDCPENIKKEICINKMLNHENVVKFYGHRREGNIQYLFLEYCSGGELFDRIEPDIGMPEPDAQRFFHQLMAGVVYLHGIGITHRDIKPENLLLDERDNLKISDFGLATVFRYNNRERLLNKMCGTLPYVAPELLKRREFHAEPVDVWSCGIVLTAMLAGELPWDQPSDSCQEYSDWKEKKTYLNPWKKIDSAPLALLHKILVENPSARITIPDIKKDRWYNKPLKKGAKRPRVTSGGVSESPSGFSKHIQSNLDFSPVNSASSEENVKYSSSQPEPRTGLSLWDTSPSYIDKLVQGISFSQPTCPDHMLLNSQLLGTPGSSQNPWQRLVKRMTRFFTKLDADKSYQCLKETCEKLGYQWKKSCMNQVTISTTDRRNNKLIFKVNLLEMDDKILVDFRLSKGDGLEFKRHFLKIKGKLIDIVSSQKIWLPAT

[8] = target: Focal adhesion kinase 1 (Homo sapiens) (UniProt Q05397); assay: Inhibition of FAK (unknown origin) at 1 uM
[9] = target: Tyrosine-protein kinase ABL1 (Homo sapiens) (UniProt P00519); assay: Inhibition of ABL1 (unknown origin) at 1 uM
[10] = target: Ribosomal protein S6 kinase beta-1 (Homo sapiens) (UniProt P23443); assay: Inhibition of p70S6K (unknown origin) at 1 uM
Sequence of Ribosomal protein S6 kinase beta-1 (Homo sapiens) (P23443 whole entry, looked up): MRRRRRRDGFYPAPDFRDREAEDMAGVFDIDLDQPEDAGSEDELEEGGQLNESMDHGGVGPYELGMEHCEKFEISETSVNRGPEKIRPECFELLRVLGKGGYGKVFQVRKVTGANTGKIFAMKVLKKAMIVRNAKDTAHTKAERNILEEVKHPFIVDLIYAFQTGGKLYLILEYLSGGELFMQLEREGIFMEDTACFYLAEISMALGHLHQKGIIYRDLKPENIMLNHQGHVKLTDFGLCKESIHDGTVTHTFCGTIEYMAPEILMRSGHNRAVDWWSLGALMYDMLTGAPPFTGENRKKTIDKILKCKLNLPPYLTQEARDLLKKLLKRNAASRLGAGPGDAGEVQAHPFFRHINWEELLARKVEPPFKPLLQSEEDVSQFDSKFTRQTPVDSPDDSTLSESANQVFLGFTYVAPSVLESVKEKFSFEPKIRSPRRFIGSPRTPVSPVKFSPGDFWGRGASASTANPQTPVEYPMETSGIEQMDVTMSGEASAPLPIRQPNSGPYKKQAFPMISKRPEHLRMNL

[11] = target: Fibroblast growth factor receptor 1 (Homo sapiens) (UniProt P11362); assay: Inhibition of FGFR1 (unknown origin) at 1 uM
[12] = target: Tyrosine-protein kinase Fer (Homo sapiens) (UniProt P16591); assay: Inhibition of FER (unknown origin) at 1 uM
[13] = target: Tyrosine-protein kinase receptor UFO (Homo sapiens) (UniProt P30530); assay: Inhibition of AXL (unknown origin) at 1 uM
Sequence of Tyrosine-protein kinase receptor UFO (Homo sapiens) (P30530 whole entry): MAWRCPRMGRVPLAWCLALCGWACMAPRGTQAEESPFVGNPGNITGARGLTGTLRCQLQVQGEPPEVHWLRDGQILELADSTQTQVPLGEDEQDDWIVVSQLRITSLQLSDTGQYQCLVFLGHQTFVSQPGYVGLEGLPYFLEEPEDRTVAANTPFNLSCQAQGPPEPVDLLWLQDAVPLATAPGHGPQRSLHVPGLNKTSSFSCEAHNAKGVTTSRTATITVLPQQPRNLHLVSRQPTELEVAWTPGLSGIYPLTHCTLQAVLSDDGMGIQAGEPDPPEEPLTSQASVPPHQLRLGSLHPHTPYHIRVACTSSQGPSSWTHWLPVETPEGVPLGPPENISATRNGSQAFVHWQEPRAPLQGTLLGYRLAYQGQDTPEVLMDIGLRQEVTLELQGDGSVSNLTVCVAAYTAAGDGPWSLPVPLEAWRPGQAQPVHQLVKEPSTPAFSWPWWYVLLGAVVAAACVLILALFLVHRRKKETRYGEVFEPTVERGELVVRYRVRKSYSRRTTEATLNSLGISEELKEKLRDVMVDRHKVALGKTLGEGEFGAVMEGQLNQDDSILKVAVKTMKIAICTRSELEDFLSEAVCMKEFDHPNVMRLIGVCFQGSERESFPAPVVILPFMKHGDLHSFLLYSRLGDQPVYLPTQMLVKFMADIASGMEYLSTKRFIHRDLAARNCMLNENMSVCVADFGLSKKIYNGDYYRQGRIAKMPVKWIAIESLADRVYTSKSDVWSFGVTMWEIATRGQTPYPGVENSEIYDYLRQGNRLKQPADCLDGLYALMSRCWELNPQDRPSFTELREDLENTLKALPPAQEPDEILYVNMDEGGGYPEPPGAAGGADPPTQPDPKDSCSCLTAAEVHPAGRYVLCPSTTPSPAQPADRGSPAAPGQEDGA

[14] = target: Tyrosine-protein kinase Lck (Homo sapiens) (UniProt P06239); assay: Inhibition of LCK (unknown origin) at 1 uM
[15] = target: Protein kinase C epsilon (Homo sapiens) (UniProt Q02156); assay: Inhibition of PKCepsilon (unknown origin) at 1 uM
Sequence of Protein kinase C epsilon (Homo sapiens) (Q02156 whole entry, looked up): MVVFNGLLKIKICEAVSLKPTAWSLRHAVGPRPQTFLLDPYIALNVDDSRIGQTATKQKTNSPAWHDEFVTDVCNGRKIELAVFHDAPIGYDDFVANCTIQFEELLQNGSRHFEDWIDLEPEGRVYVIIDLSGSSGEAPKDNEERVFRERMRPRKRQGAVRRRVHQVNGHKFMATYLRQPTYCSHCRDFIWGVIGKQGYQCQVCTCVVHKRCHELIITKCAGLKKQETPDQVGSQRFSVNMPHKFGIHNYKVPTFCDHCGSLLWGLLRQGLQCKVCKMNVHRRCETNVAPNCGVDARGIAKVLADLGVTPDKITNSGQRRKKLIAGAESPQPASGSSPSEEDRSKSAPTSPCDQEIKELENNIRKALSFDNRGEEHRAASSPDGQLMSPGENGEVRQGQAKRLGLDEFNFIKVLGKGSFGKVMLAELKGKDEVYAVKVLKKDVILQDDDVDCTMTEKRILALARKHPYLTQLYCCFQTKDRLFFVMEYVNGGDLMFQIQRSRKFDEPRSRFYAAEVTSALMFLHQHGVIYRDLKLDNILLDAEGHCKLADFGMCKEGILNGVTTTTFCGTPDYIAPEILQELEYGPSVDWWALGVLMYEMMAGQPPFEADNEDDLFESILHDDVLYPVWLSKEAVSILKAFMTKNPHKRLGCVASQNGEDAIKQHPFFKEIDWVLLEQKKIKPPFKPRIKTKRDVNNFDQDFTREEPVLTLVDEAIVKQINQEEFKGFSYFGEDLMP

[16] = target: Tyrosine-protein kinase ABL2 (Homo sapiens) (UniProt P42684); assay: Inhibition of ABL2 (unknown origin) at 1 uM
[17] = target: Serine/threonine-protein kinase Chk2 (Homo sapiens) (UniProt O96017); assay: Inhibition of CHK2 (unknown origin) at 1 uM
[18] = target: Homeodomain-interacting protein kinase 1 (Homo sapiens) (UniProt Q86Z02); assay: Inhibition of HIPK1 (unknown origin) at 1 uM
[19] = target: Tyrosine-protein kinase JAK3 (Homo sapiens) (UniProt P52333); assay: Inhibition of JAK3 (unknown origin) at 1 uM
[20] = target: Tyrosine-protein kinase Lyn (Homo sapiens) (UniProt P07948); assay: Inhibition of LYN (unknown origin) at 1 uM
[21] = target: Cyclin-dependent kinase 1/cyclin B1 (Homo sapiens) (UniProt P06493+P14635); assay: Inhibition of CDK1/cyclin B (unknown origin) at 1 uM; type: protein-complex assay
[22] = target: Protein kinase C theta type (Homo sapiens) (UniProt Q04759); assay: Inhibition of PKCtheta (unknown origin) at 1 uM
[23] = target: Proto-oncogene tyrosine-protein kinase Src (Homo sapiens) (UniProt P12931); assay: Inhibition of c-SRC (unknown origin) at 1 uM
Sequence of Proto-oncogene tyrosine-protein kinase Src (Homo sapiens) (P12931 2-536 limits assumed): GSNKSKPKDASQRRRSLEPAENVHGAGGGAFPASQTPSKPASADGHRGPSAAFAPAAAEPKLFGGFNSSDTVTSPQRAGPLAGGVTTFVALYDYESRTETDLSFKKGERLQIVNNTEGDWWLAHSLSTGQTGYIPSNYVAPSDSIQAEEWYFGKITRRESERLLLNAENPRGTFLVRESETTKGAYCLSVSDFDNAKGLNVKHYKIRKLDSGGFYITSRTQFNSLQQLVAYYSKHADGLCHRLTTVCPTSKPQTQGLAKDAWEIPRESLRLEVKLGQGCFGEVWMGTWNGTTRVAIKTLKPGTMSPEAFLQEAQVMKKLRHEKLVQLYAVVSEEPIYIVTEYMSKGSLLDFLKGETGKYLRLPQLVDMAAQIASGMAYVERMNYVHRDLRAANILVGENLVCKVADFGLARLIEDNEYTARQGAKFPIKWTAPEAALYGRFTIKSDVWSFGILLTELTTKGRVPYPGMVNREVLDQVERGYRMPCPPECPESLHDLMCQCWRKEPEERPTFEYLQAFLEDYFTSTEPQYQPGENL

[24] = target: CDK9/cyclin T1 (Homo sapiens) (UniProt O60563+P50750); assay: Inhibition of CDK9/cyclin T1 (unknown origin) at 1 uM; type: protein-complex assay
[25] = target: High affinity nerve growth factor receptor (Homo sapiens) (UniProt P04629); assay: Inhibition of TRKA (unknown origin) at 1 uM
Sequence of High affinity nerve growth factor receptor (Homo sapiens) (P04629 33-796 limits assumed): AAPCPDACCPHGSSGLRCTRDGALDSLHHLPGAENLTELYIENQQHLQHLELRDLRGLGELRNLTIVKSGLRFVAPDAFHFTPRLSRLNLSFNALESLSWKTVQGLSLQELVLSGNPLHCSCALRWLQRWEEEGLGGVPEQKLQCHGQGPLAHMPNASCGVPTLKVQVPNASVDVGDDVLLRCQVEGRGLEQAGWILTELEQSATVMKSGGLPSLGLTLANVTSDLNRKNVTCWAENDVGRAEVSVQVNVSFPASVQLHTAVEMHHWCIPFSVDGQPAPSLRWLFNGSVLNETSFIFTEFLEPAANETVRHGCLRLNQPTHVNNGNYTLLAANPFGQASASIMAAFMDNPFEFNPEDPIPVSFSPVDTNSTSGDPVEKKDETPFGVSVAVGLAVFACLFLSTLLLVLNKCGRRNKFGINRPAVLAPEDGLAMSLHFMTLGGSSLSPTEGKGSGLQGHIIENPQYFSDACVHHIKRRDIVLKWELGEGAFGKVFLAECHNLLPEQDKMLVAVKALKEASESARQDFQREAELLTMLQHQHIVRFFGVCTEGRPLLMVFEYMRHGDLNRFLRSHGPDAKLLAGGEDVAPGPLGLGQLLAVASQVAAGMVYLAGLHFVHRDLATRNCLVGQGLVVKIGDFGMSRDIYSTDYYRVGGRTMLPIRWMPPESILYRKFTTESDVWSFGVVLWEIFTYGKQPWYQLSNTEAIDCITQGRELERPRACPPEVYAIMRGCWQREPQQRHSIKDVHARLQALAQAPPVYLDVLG

[26] = target: Tyrosine-protein kinase Fyn (Homo sapiens) (UniProt P06241); assay: Inhibition of FYN (unknown origin) at 1 uM
[27] = target: Serine/threonine-protein kinase PAK 4 (Homo sapiens) (UniProt O96013); assay: Inhibition of PAK4 (unknown origin) at 1 uM

inhibition [1]: > 80%
inhibition [2]: > 80%
inhibition [3]: > 50%
inhibition [4]: 50%
inhibition [5]: 50%
inhibition [6]: > 80%
inhibition [7]: > 80%
inhibition [8]: 50%
inhibition [9]: > 80%
inhibition [10]: > 95%
inhibition [11]: > 95%
inhibition [12]: > 80%
inhibition [13]: > 80%
inhibition [14]: > 80%
inhibition [15]: 50%
inhibition [16]: > 80%
inhibition [17]: > 80%
inhibition [18]: 50%
inhibition [19]: > 95%
inhibition [20]: > 80%
inhibition [21]: > 50%
inhibition [22]: 50%
inhibition [23]: > 80%
inhibition [24]: > 50%
inhibition [25]: > 80%
inhibition [26]: 50%
inhibition [27]: 50%
SMILES: COc1cc(Nc2ncc(Cl)c(-c3cccc(CC#N)c3)n2)ccc1N1CCN(C)CC1
